Source: publication PMC5244392, “Interspecies cathelicidin comparison reveals divergence in antimicrobial activity, TLR modulation, chemokine induction and regulation of phagocytosis” (Scientific Reports, 2017)

System: E. coli ATCC 25922 and S. aureus ATCC 29213
Experiment: Bacterial growth delay, additional strains (Supplementary Fig. S1)
Format: cell-based, Escherichia coli; Staphylococcus aureus
Settings: E. coli ATCC 25922 and S. aureus ATCC 29213 compared with E. coli O78 and MRSA; MHB or DMEM + FCS; N = 2
Procedure: E. coli O78 (Zoetis Animal Health, Kalamazoo, MI, USA), E. coli ATCC 25922, Staphylococcus aureus ATCC 29213, and methicillin resistant Staphylococcus aureus (MRSA) (WKZ-2, human clinical isolate) were grown overnight from a glycerol stock in Mueller Hinton Broth (MHB) (Becton Dickinson, USA). Before use, bacteria were grown to mid-log phase in MHB for 2 hours at 37 °C, 200 RPM. Murine RAW264.7 macrophages (ATCC-TIB-71) were obtained from the American Type Culture Collection (ATCC, Manassas, VA, USA) and cultured in DMEM (41966-029; Thermo Fisher Scientific, Waltham, MA, USA) supplemented with 10% FCS (Bodinco B.V., Alkmaar, the Netherlands) (DMEM + FCS) at 37 °C, 5.0% CO2. […]
Peptides (0.63 to 40 μM) and bacteria mid-log cultures (2 * 10^6 CFU/ml) were prepared in MHB or DMEM + FCS and mixed (100 μl peptide + 100 μl bacterial culture) in a Bioscreen C analyzer plate (Oy Growth Curves Ab Ltd, Helsingfors, Finland). […] The OD was measured every 15 minutes using a wideband filter (450–580 nm) to measure bacterial growth. The time needed grow above an OD of 0.6 was determined for all concentrations. […]
E. coli ATCC 25922 and S. aureus ATCC 29213 (1x10^6 CFU/ml) were grown in MHB or DMEM+FCS for 16 hours under constant shak ing (200 RPM) in the presence of diﬀerent concentration of cathelicidins (0.31 µM, 0.63 µM, 1.25 µM, 2.5 µM, 5 µM, 10 µM, and 20 µM). The OD was measured ever y 15 minutes. […]

## RRRPRPPYLPRPRPPPFFPPRLPPRIPPGFPPRFPPRFP [PR-39, porcine proline-rich cathelicidin forming a polyproline helix, 39 residues, charge +10]
  Fold difference in Cmax with other bacterial strains: 8–16 fold
